Assay results: patent US11365192B2, “Pyridine compound substituted with azole” (TAISHO PHARMACEUTICAL CO., LTD., priority 2017, dated 2022)

Tests used:
[1] = target: human CYP4F2 (Homo sapiens (Human), UniProt P78329); assay: Inhibition test against 20-HETE producing enzyme CYP4F2 (luciferine derivative, luminescence); format: biochemical
How it was run: (§1)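 E. coli membranes (100 μg/mL protein) expressing human enzyme, room temperature 60 min, luciferin-derivative luminescence; IC50 from % inhibition. CYP4F2: 50 mM KPO4 pH 7.4, 2.5 μM substrate, 1 mM NADPH. CYP4A11: 100 mM Tris-HCl pH 7.5, 60 μM substrate, NADP+/glucose 6-phosphate/G6PDH regenerating system, 3.3 mM MgCl2.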

[2] = target: human CYP4A11 (Homo sapiens (Human), UniProt Q02928); assay: Inhibition test against 20-HETE producing enzyme CYP4A11 (luciferine derivative, luminescence); format: biochemical
human CYP4A11, sequence (Q02928 5-519): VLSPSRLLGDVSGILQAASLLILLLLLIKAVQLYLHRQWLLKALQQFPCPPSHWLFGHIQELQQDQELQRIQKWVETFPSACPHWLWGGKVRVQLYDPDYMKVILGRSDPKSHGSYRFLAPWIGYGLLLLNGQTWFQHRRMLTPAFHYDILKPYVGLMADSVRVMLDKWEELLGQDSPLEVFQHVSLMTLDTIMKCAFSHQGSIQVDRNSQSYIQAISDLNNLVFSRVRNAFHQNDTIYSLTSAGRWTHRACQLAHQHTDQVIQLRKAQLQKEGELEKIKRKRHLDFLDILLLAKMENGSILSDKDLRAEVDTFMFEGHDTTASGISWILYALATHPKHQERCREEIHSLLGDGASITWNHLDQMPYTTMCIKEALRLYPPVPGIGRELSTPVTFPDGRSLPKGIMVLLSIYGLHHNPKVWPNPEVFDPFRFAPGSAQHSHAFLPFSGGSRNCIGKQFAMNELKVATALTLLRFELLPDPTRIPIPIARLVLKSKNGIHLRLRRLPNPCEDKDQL
How it was run: as §1

[3] = E. coli membrane fraction expressing human CYP4F2, 2.5 μM luciferine derivative, room temperature 60 minutes
[4] = E. coli membrane fraction expressing human CYP4A11, 60 μM luciferine derivative, room temperature 60 minutes
[5] = human CYP4F2, luciferine derivative, luminescence
[6] = human CYP4A11, luciferine derivative, luminescence

human CYP4F2, sequence (P78329 5-520): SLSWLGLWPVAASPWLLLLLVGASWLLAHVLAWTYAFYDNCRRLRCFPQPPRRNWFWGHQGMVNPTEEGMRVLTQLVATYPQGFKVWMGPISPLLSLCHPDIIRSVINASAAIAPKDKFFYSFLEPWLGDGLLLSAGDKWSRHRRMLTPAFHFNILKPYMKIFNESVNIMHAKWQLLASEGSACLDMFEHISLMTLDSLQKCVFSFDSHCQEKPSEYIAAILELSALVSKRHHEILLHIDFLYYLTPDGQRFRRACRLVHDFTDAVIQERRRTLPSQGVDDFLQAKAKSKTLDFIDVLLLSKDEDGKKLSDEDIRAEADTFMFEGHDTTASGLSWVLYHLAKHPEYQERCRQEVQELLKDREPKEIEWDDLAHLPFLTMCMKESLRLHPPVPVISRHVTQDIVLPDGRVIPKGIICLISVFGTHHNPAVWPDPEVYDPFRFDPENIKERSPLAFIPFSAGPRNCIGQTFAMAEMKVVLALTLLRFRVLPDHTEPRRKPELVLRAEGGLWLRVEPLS

SMILES	IC50 [1, 3] [nM]	IC50 [2, 4] [nM]	IC50 [1, 5] [nM]	IC50 [2, 6] [nM]
O=C(O)CCNC(=O)c1cc(COc2ccc(-c3ccn[nH]3)nc2)ccn1 [Example 49-1, 3-[[Oxo-[4-[[6-(1H-pyrazol-5-yl)-3-pyridinyl]oxymethyl]-2-pyridinyl]methyl]amino]propanoic Acid]	1100	1200		
O=C(CCCCCCOc1ccc(-c2ccn[nH]2)nc1)NC1(C(=O)O)CCCC1 [Example 50-1, 1-[[1-Oxo-7-[[6-(1H-pyrazol-5-yl)-3-pyridinyl]oxy]heptyl]amino]-1-cyclopentanecarboxylic Acid]	2800	75		
COC(=O)N1CCC(O)(c2cccc(COc3ccc(-c4ccn[nH]4)nc3)c2)CC1 [Example 51-1, Methyl 4-hydroxy-4-[3-[[6-(1-H-pyrazol-5-yl)-3-pyridinyl]oxymethyl]phenyl]-1-piperidinecarboxylate]	3	270		
CN(C)C(=O)N1CCC(O)(c2cccc(COc3ccc(-c4ccn[nH]4)nc3)c2)CC1 [Example 51-2]	3.5	310		
CC(=O)N1CCC(O)(c2cccc(COc3ccc(-c4ccn[nH]4)nc3)c2)CC1 [Example 52-1, 1-[4-Hydroxy-4-[3-[[6-(1-H-pyrazol-5-yl)-3-pyridinyl]oxymethyl]phenyl]-1-piperidinyl]ethanone]	4.4	710		
CC(=O)N1CC(O)(c2cccc(COc3ccc(-c4ccn[nH]4)nc3)c2)C1 [Example 52-2]	50	520		
NC(=O)c1cccc(COc2ccc(-c3ccn[nH]3)nc2)c1 [Example 53-1, 3-[[6-(1H-Pyrazol-5-yl)-3-pyridinyl]oxymethyl]benzamide]	190	110		
NC(=O)c1cc(COc2ccc(-c3n[nH]cc3Cl)nc2)ccn1 [Example 53-2]	16	950		
CS(=O)(=O)NC(=O)CCCCCOc1ccc(-c2ccn[nH]2)nc1 [Example 54-1, N-Methylsulfonyl-6-[[6-(1H-pyrazol-5-yl)-3-pyridinyl]oxy]hexanamide]	21000	70		
CC(C)(CCNC(=O)N1CCC[C@@H](COc2ccc(-c3ccn[nH]3)nc2)C1)C(=O)O [Example 55-1, 2,2-Dimethyl-4-[[oxo-[(3R)-3-[[6-(1H-pyrazol-5-yl)-3-pyridinyl]oxymethyl]-1-piperidinyl]methyl]amino]butanoic Acid]	6500	200		
CC(C)S(=O)(=O)Nc1cccc(COc2ccc(-c3ccn[nH]3)nc2)c1 [Example 56-1, N-[3-[[6-(1H-Pyrazol-5-yl)-3-pyridinyl]oxymethyl]phenyl]-2-propanesulfonamide]	450	140		
CS(=O)(=O)N[C@H]1CC[C@@H](Oc2ccc(-c3ccn[nH]3)nc2)CC1 [Example 57-2]	7300	6700		
CN([C@H]1CC[C@H](Oc2ccc(-c3ccn[nH]3)nc2)CC1)S(C)(=O)=O [Example 57-3]	2000	2000		
CS(=O)(=O)NCC12CC(COc3ccc(-c4ccn[nH]4)nc3)(C1)C2 [Example 58-1, N-[[3-[[6-(1H-Pyrazol-5-yl)-3-pyridinyl]oxymethyl]-1-bicyclo[1.1.1]pentanyl]methyl]methanesulfonamide]	120	580		
CN(CC12CC(COc3ccc(-c4ccn[nH]4)nc3)(C1)C2)S(C)(=O)=O [Example 58-2, N-Methyl-N-[[3-[[6-(1H-pyrazol-5-yl)-3-pyridinyl]oxymethyl]-1-bicyclo[1.1.1]pentanyl]methyl]methanesulfonamide]	5.1	240		
OC(Cc1cccc(COc2ccc(-c3ccn[nH]3)nc2)c1)C(F)(F)F (stereo not shown) [Example 59-1, 1,1,1-Trifluoro-3-[3-[[6-(1H-pyrazol-5-yl)-3-pyridinyl]oxymethyl]phenyl]-2-propanol]	10	130		
OC(c1ccc(COc2ccc(-c3ccn[nH]3)nc2)cc1)C(F)F (stereo not shown) [Example 59-2, 2,2-Difluoro-1-[4-[[6-(1H-pyrazol-5-yl)-3-pyridinyl]oxymethyl]phenyl]ethanol]	100	1800		
OC(c1ccc(COc2ccc(-c3ccn[nH]3)nc2)cc1)C(F)(F)F (stereo not shown) [Example 59-3]	41	1500		
O=C(O)C(F)(F)c1cccc(COc2ccc(-c3ccn[nH]3)nc2)c1 [Example 60-1, 2,2-Difluoro-2-[3-[[6-(1H-pyrazol-5-yl)-3-pyridinyl]oxymethyl]phenyl]acetic Acid]	37000	8.2		
OCC(F)(F)c1cccc(COc2ccc(-c3ccn[nH]3)nc2)c1 [Example 60-2, 2,2-Difluoro-2-[3-[[6-(1H-pyrazol-5-yl)-3-pyridinyl]oxymethyl]phenyl]ethanol]	130	29		
CS(=O)(=O)NC(=O)NCCCCOc1ccc(-c2ccn[nH]2)nc1 [Example 61-1, 1-Methylsulfonyl-3-[4-[[6-(1-H-pyrazol-5-yl)-3-pyridinyl]oxy]butyl]urea]	8000	72		
O=C1CN(CCCCOc2ccc(-c3ccn[nH]3)nc2)C(=O)N1 [Example 61-2, 1-[4-[[6-(1-H-pyrazol-5-yl)-3-pyridinyl]oxy]butyl]imidazolidine-2,4-dione]	280	750		

SMILES	IC50 [1, 3] [nM]	IC50 [2, 4] [nM]	IC50 [1, 5] [nM]	IC50 [2, 6] [nM]
c1cc(-c2ccc(OCCCCCc3nnn[nH]3)cn2)[nH]n1 [Example 62-1, 2-(1H-Pyrazol-5-yl)-5-[5-(1H-tetrazol-5-yl)pentoxy]pyridine]	3500	28		
O=c1[nH]c(CCCCCOc2ccc(-c3ccn[nH]3)nc2)no1 [Example 62-2, 3-[5-[[6-(1H-Pyrazol-5-yl)-3-pyridinyl]oxy]pentyl]-4H-1,2,4-oxadiazol-5-one]	1900	27		
O=C1NC(=O)C(CCCCOc2ccc(-c3ccn[nH]3)nc2)O1 (stereo not shown) [Example 63-1, 5-[4-[[6-(1H-Pyrazol-5-yl)-3-pyridinyl]oxy]butyl]oxazolidine-2,4-dione]	12000	31		
Oc1cc(CCCCOc2ccc(-c3ccn[nH]3)nc2)on1 [Example 64-1, 5-[4-[[6-(1H-Pyrazol-5-yl)-3-pyridinyl]oxy]butyl]-3-isoxazole]	780	41		
O=S(=O)(NCc1cccc(COc2ccc(-c3ccn[nH]3)nc2)c1)C(F)(F)F [Example 65-1, 1,1,1-Trifluoro-N-[[3-[[6-(1-H-pyrazol-5-yl)-3-pyridinyl]oxymethyl]phenyl]methyl]methanesulfonamide]	63	8.1		
CS(=O)(=O)c1cc(O)cc(COc2ccc(-c3[nH]ncc3Cl)nc2)c1 [Example 66-1, 3-[[6-(4-Chloro-1H-pyrazol-5-yl)-3-pyridinyl]oxymethyl]-5-methylsulfonylphenol]	16	33		
NC(=O)c1cc(COc2ccc(-c3[nH]ncc3C(F)F)nc2)ccn1 [Example 67-1, 4-[[6-[4-(Difluoromethyl)-1H-pyrazol-5-yl]-3-pyridinyl]oxymethyl]-2-pyridinecarboxamide]	2700	> 50000		
O=C(O)[C@@H]1CCc2ccc(COc3ccc(-c4ccn[nH]4)nc3)cc2C1 [Example 69-1-1]			240	21
O=C(O)[C@H]1CCc2ccc(COc3ccc(-c4ccn[nH]4)nc3)cc2C1 [Example 69-1-2]			200	25
O=C(O)[C@@H]1COc2ccc(COc3ccc(-c4ccn[nH]4)nc3)cc2C1 [Example 69-2-1]			600	37
O=C(O)[C@H]1COc2ccc(COc3ccc(-c4ccn[nH]4)nc3)cc2C1 [Example 69-2-2]			1100	36
O=C(O)[C@@H]1CCc2ccc(COc3ccc(-c4ccn[nH]4)nc3)cc2O1 [Example 69-3-1]			110	23
O=C(O)[C@H]1CCc2ccc(COc3ccc(-c4ccn[nH]4)nc3)cc2O1 [Example 69-3-2]			300	220
O=C(O)[C@@H]1CCCN(S(=O)(=O)c2cccc(COc3ccc(-c4ccn[nH]4)nc3)c2)C1 [Example 69-4-1]			86	27
O=C(O)[C@H]1CCCN(S(=O)(=O)c2cccc(COc3ccc(-c4ccn[nH]4)nc3)c2)C1 [Example 69-4-2]			670	40
O=C(O)/C=C/c1cccc(COc2ccc(-c3ccn[nH]3)nc2)c1F [Example 70-1, (E)-3-[2-Fluoro-3-[[6-(1H-pyrazol-5-yl)pyridin-3-yl]oxymethyl]phenyl]prop-2-enoic Acid]			49	27
O=C(O)CCc1cccc(COc2ccc(-c3ccn[nH]3)nc2)c1F [Example 70-2, 3-[2-Fluoro-3-[[6-(1H-pyrazol-5-yl)pyridin-3-yl]oxymethyl]phenyl]propanoic Acid]			1100	28
O=C(O)C1CC1c1cccc(COc2ccc(-c3ccn[nH]3)nc2)c1F (stereo not shown) [Example 70-3, 2-[2-Fluoro-3-[[6-(1H-pyrazol-5-yl)pyridin-3-yl]oxymethyl]phenyl]cyclopropane-1-carboxylic Acid]			280	28
O=C(O)/C=C/c1cccc(CCOc2ccc(-c3ccn[nH]3)nc2)c1 [Example 70-4]			56	150
O=C(O)/C=C/c1ccc(CCOc2ccc(-c3ccn[nH]3)nc2)cc1F [Example 70-5]			27	43
O=C(O)/C=C/c1ccc(CCOc2ccc(-c3ccn[nH]3)nc2)cc1 [Example 70-6]			47	76
O=C(O)C1CC1c1ccc(CCOc2ccc(-c3ccn[nH]3)nc2)cc1F (stereo not shown) [Example 70-8]			120	130
